Measured values reported in paper PMC12442009, “Self-Assembling Cyclic Peptide Nanotubes for the Delivery of Doxorubicin into Drug-Resistant Cancer Cells” (ACS Applied Materials & Interfaces, 2025).
Where two headings read alike, the source gives them in different places. Square brackets hold non-standard residues; d marks the D form. Peptide text beside a SMILES is read from it. * marks the point of attachment. X1 = COc1cccc2c1C(=O)c1c(O)c3c(c(O)c1C2=O)C[C@@](O)(C(CO)=NNC(=O)CCCCCN1C(=O)CC(*)C1=O)C[C@@H]3O[C@H]1C[C@H](N)[C@H](O)[C@H](C)O1; Pra = C#CC[C@H](N)C(=O)O

Experiments:
NCI/ADR-RES cells [1] = assay: Confocal microscopy internalization and colocalization; settings: 50 μM, 2 h
[2] = tested on: MCF-7 (breast cancer cell line); assay: MTT cell growth inhibition, MCF-7; type: cell-based; settings: MCF-7, 96 h incubation, MTT; for IC50: 50% growth inhibition, calculated only if E max > 50%, read-out: IC50; for E max (% inhibition): inhibition at highest concentration tested (100 μM), triplicate points
Method: (§1) The cell growth inhibition of each compound was evaluated using the MTT (3-[4,5-dimethylthiazol-2-yl]-2,5-diphenyltetrazolium bromide) assay. MCF-7 and MRC-5 cells were grown on a Minimum Essential Medium Eagle, while NCI-H460 and NCI/ADR-RES cells were grown on RPMI 1640 culture medium. All culture mediums were supplemented with 10% FBS (fetal bovine serum) and 1% penicillin-streptomycin-glutamine mix. […] MCF-7 (100,000 cells/mL), NCI-H460 (150,000 cells/mL), NCI/ADR-RES (150,000 cells/mL), or MRC-5 (100,000 cells/mL) cells were seeded the day before in sterile 96-well plates (100 μL/well). Then, cells were incubated with each concentration of the compound (100 μL/well) for the specified time for each cell line. The compounds were previously dissolved in DMSO and diluted at the time of the experiment with complete medium to the concentration to be tested. The DMSO content of each well was maintained at less than 1%. All concentrations were carried out with triplicate points, and controls with DMSO at the same proportion in which the compounds were dissolved were included in all experiments. After the incubation time, the samples were removed, and 100 μL of complete medium with 0.5 mg/mL MTT was added to each well. Cells were incubated for 4 h, and the medium was removed. The resulting formazan crystals were dissolved in DMSO (100 μL/well). The absorbance of each well at 595 nm was acquired with a Tecan Infinite F200Pro plate reader. A blank subtraction was performed (cells treated with Triton X-100), and the data were normalized to the value of the untreated cells (100% viability). Data were analyzed with GraphPad Prism software.

[3] = Hydrazone stability / DOX release followed by mass spectrometry; type: physicochemical; settings: 200 μM
[4] = tested on: NCI-H460 (lung cancer cell line); settings: NCI-H460, 48 h incubation, MTT; for E max (% inhibition): inhibition at highest concentration tested (100 μM)
Method: as §1

[5] = tested on: NCI/ADR-RES (doxorubicin-resistant ovarian cancer cell line); assay: MTT cell growth inhibition, NCI/ADR-RES; type: cell-based; settings: NCI/ADR-RES, MTT; for E max (% inhibition): inhibition at highest concentration tested (100 μM)
Method: as §1

NCI/ADR-RES cells [6] = assay: Cell uptake by RP-HPLC of cell lysates; settings: 100 μM, 120 min, 37 °C minus 4 °C, ACN/H2O extraction, RP-HPLC 460 nm, normalized vs initial concentration incubated
Method: NCI/ADR-RES cells (10^6) were seeded in T-25 Flasks. After 24 h, the medium was removed, and a solution of DOX or CP1T NBD -DOX (100 μM) in culture medium (7 mL) was added. The cells were incubated for 120 min at 37 °C under a CO2 atmosphere (5%). Then, the medium was removed, and the cells were washed with cold PBS (3 × 3 mL). After washing, a mixture of ACN/H2O (1.5 mL, 80:20) was added to the flask and incubated overnight at 4 °C. Solvent samples were transferred to 1.5 mL Eppendorf and centrifuged at 12,000 g for 15 min at 4 °C, and the supernatant was evaporated to dryness. Analogous experiments were carried out by incubating the compounds at 4 °C for 120 min to determine the nonspecific binding to the cell membrane, since the uptake is decreased at this temperature. To evaluate the efficiency of solvent extraction, 10^6 cells were seeded in a T-25 Flask. […] The resulting lysates were analyzed by RP-HPLC by dissolving the Eppendorf samples in an aqueous solution of TFA (1%, 100 μL). All of the intracellular compound quantities were calculated from the detected area and divided by the efficiency of solvent extraction. Cell uptake was calculated by subtracting the intracellular compound quantity from the assay carried out at 37 °C from the quantity obtained at 4 °C and normalized to 100% vs the initial concentration incubated.

[7] = tested on: NCI-H460 (lung cancer cell line); assay: cells; settings: Homo sapiens, NCI-H460, 48 h
Method: as §1

[8] = tested on: MRC-5 (human embryonic lung cell line); assay: MTT cytotoxicity in noncancerous fibroblasts MRC-5; type: cell-based; settings: MRC-5 fibroblasts, 7 days incubation

SMILES	cell internalization / localization by confocal microscopy (NCI/ADR-RES cells [1])	IC50 [2] [µM]	E max (% inhibition) [2] [% inhibition]	stability (DOX release) at pH 5.0 ([3]; pH 5.0 (10 mM citrate buffer), followed over 72 h)	stability (DOX release) at physiological pH ([3]; pH 7.0 (H2O), 72 h)	IC50 ([4]; calculated only if E max > 50%) [µM]	E max (% inhibition) [4] [% inhibition]	E max (% inhibition) ([5]; 72 h incubation)	cell uptake (NCI/ADR-RES cells [6]) [%]	E max (% inhibition) ([5]; 48 h incubation)	IC50 ([5]; 72 h incubation, calculated only if E max > 50%, read-out: IC50) [µM]	IC50 ([2]; Homo sapiens, MCF7) [µM]	IC50 [7] [µM]	cytotoxicity in MRC-5 [8]	E max (% inhibition) ([5]; 48 h incubation, listed as doxorubicin)
C#CC[C@@H]1NC(=O)[C@@H](Cc2c[nH]c3ccccc23)NC(=O)[C@H](CO)NC(=O)[C@@H](CCCCN)NC(=O)[C@H](CO)NC(=O)[C@@H](CSC2CC(=O)N(CCCCCC(=O)NN=C(CO)[C@]3(O)Cc4c(O)c5c(c(O)c4[C@@H](O[C@H]4C[C@H](N)[C@H](O)[C@H](C)O4)C3)C(=O)c3c(OC)cccc3C5=O)C2=O)NC(=O)[C@H](CCC(N)=O)NC(=O)[C@@H](CCCCN)NC1=O (some centres unmarked) [CP1-DOX] (cyclo(Q[dC](X1)S[dK]S[dW][Pra][dK]))	mainly trapped in small compartments of the cytoplasm	3.5 ± 0.3	81 ± 1	drug release was observed after 72 h under these conditions, although part of the cyclic peptide conjugate survived after this time	much more stable at physiological pH, with a small release of the drug after 72 h	2.8 ± 0.1	75 ± 1	22 ± 4							
COc1cccc2c1C(=O)c1c(O)c3c(c(O)c1C2=O)C[C@@](O)(C(CO)=NNC(=O)CCCCCN1C(=O)CC(SC[C@H]2NC(=O)[C@H](CCC(N)=O)NC(=O)[C@@H](CCCCN)NC(=O)[C@H](Cc4cn(CCCCC(=O)NCCNc5ccc([N+](=O)[O-])c6nonc56)nn4)NC(=O)[C@@H](Cc4c[nH]c5ccccc45)NC(=O)[C@H](CO)NC(=O)[C@@H](CCCCN)NC(=O)[C@H](CO)NC2=O)C1=O)C[C@@H]3O[C@H]1C[C@H](N)[C@H](O)[C@H](C)O1 (some centres unmarked) [CP1T NBD -DOX]									56.34	30 ± 3	3.7 ± 0.2				
COc1cccc2c1C(=O)c1c(O)c3c(c(O)c1C2=O)C[C@@](O)(C(=O)CO)C[C@@H]3O[C@H]1C[C@H](N)[C@H](O)[C@H](C)O1 [DOX, doxorubicin]	no significant internalization		86 ± 1				56 ± 1		21.56	36 ± 4		0.82 ± 0.1	9.3 ± 1.7	significant cytotoxicity	36
